Results from patent publication US20130065227A1, “METHODS OF INCREASING MACROPINOCYTOSIS IN CANCER CELLS” (priority 2010, published 2013).

Assays:
[1] = test system: most cancer cells tested; assay: Cell death on continuous exposure; format: cell-based; settings: 10 μM AS1411
Method: As described above, it is known that AS1411 can induce an unusual form of cell death in cancer cells. It was previously shown that G-rich oligonuclotides could induce cell death selectively in cancer cells compared to non-malignant cells, but it was noted that the morphology of the cells was inconsistent with death by apoptosis. The timing of cell death was also quite unusual, with continuous exposure (at 10 μM AS1411) for 7 days or more required to cause complete cell death for most cancer cells tested. […] However, cell death was also dose-dependent and occurred within hours in DU145 cells treated with 40 μM AS1411. Based on the various published reports, the cell death mechanism in U937 leukemia cells was investigated, and it was confirmed that cell death was not by apoptosis (FIG. 14 A-D). […] Although the same detailed studies of cell death have not been carried out in other cancer cell lines, it is consistently seen that AS1411-responsive cells die with a characteristic morphology (enlarged and vacuolated cells) without evidence of apoptosis.

[2] = test system: U937 leukemia cells; assay: Cell death mechanism (DNA laddering, immunoblotting, electron microscopy); format: cell-based
Method: (A) Trypan blue staining of U937 leukemia cells showing percentage of dead cells (trypan blue positive) over time. (B) U937 cells were untreated (Un) or treated with 1 μM AS1411 (1411) or control oligonucleotide (Ctrl) for 72 h. DNA was extracted, electrophoresed on an agarose gel and stained with ethidium bromide to probe DNA laddering. As a positive control, […] were treated with UV irradiation to induce apoptosis as previously described. […] (D) U937 cells treated as described for panel B, followed by protein extraction and immunoblotting (IB) to detect PARP cleavage and Caspase-3 activation. (E) DU145 prostate cancer cells were incubated with 10 μM of AS1411 for 24 h, or irradiated with UV (300 J/m^2 with UV Stratalinker 2400, Strategene), then cultured in fresh medium for 6 h. Assessment of cell death was carried out by flow cytometry to detect Annexin V-FITC binding and PI staining.

5′-d(GGTGGTGGTGGTTGTGGTGGTGGTGG) [AS1411]
continuous exposure required to cause complete cell death [1]: ≥ 7 days | effect on DNA replication and cell division [2]: inhibited DNA replication and cell division | effect on protein synthesis [2]: not inhibited | induction of apoptosis markers ([2]; 1 μM, 72 h, UV irradiation as positive control): does not induce DNA laddering, PARP cleavage, or Caspase-3 activation | cell death morphology in electron micrographs ([2]; 72 h): necrosis-like cell death
